Assay results published in patent US12121530B2, “Composition and methods for treating articulating joint disorders with nucleoside reverse transcriptase inhibitors” (RHODE ISLAND HOSPITAL, priority 2018, dated 2024).
“Also recorded” adds a separate entry of the source.

Tested on: human chondrocyte cell line-C28
Test: gene expression in human chondrocyte cell line C28 treated with 3TC
Type: cell-based
Experimental: Both miRNA and mRNA were extracted using miRNeasy Mini Kit (Qiagen®, Germantown, Md., USA) and reversely transcribed using miScriptIIRT Kit (Qiagen®, Germantown, Md., USA) according to manufacturer's instruction. qPCR was performed using SYBR Green PCR master mix (Qiagen®, Germantown, Md., USA) on a Bio-Rad CFX96 real-time PCR detection system (Bio-Rad®, Hercules, Calif., USA). Amplification conditions are as follows: 95° C. for 10 min, 40 cycles of 95° C. for 10″, 55° C. for 30″, and 72° C. for 30″. 18S ribosomal or GAPDH RNA was used as an internal control gene to normalize the mRNAs level. The ubiquitously expressed snRNA U6 was used as an endogenous control for miRNAs level. Primers were synthesized by Integrated DNA Technologies (http://www.idtdna.com). The primers for miR-365 were purchased from Qiagen. Fold changes of mRNA and miRNAs were calculated by the 2^^(ΔΔCt) method and normalized to 18S/GAPDH or U6 snRNA, respectively. […]

[1] = human chondrocytes C28, RNA level, various dosages

Nc1ccn([C@@H]2CS[C@H](CO)O2)c(=O)n1 [3TC, lamivudine]
Acan expression [1]: promotes; also recorded: stimulated
Adamts5 expression [1]: inhibited
COL10 (COL10A1) expression [1]: inhibited
IHH expression [1]: inhibits
Line-1 expression [1]: inhibited
MMP13 expression [1]: inhibited
COL2A1 expression (human chondrocytes, RNA level): stimulated
